The results in this text go back to ChEMBL document CHEMBL5678818, “Discovery of potent SOS1 inhibitors that block RAS activation via disruption of the RAS-SOS1 interaction” (Proc Natl Acad Sci U S A, 2019).

Experiment [1] has as its target Cyclin-dependent kinase 18 (Homo sapiens) (UniProt Q07002). Kind of experiment: Inhibition of PCTK3 (unknown origin) assessed as residual activity at 100 nM by KINOMEscan analysis relative to control.
Experiment [2] addresses T1, Tyrosine-protein kinase receptor TYRO3 (Homo sapiens) (UniProt Q06418).
T1 sequence (whole entry): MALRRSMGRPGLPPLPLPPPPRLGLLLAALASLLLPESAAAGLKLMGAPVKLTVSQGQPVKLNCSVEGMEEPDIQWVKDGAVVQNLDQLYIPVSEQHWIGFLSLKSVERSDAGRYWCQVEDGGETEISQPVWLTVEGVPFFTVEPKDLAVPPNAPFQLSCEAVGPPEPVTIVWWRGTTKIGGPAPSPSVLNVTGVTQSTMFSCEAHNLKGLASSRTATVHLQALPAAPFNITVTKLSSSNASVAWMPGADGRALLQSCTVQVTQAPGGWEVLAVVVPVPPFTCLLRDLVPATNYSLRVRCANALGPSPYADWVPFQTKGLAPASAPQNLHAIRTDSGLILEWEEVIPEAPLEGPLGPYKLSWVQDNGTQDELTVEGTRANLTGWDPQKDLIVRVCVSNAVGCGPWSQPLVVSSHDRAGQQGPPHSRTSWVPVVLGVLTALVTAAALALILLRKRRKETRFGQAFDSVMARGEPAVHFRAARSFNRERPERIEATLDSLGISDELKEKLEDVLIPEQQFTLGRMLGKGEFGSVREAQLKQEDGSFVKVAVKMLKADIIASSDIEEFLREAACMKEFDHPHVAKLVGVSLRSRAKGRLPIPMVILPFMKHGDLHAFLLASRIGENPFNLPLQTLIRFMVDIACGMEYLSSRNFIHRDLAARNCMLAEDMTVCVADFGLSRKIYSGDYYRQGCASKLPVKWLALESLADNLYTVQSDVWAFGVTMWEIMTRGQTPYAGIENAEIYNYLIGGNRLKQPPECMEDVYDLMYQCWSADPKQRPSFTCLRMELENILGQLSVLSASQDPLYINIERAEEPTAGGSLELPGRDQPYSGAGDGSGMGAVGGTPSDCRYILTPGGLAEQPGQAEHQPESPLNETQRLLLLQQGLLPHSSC
Kind of experiment: Inhibition of TYRO3 (unknown origin) assessed as residual activity at 100 nM by KINOMEscan analysis relative to control.

The test system of experiment [3] is Receptor-type tyrosine-protein kinase FLT3 (Homo sapiens), P36888 [D835H]. Briefly: Inhibition of FLT3 D835H mutant (unknown origin) assessed as residual activity at 100 nM by KINOMEscan analysis relative to control.
Experiment [4] concerns the target T2, Myosin-IIIb (Homo sapiens) (UniProt Q8WXR4).
T2 sequence (whole entry): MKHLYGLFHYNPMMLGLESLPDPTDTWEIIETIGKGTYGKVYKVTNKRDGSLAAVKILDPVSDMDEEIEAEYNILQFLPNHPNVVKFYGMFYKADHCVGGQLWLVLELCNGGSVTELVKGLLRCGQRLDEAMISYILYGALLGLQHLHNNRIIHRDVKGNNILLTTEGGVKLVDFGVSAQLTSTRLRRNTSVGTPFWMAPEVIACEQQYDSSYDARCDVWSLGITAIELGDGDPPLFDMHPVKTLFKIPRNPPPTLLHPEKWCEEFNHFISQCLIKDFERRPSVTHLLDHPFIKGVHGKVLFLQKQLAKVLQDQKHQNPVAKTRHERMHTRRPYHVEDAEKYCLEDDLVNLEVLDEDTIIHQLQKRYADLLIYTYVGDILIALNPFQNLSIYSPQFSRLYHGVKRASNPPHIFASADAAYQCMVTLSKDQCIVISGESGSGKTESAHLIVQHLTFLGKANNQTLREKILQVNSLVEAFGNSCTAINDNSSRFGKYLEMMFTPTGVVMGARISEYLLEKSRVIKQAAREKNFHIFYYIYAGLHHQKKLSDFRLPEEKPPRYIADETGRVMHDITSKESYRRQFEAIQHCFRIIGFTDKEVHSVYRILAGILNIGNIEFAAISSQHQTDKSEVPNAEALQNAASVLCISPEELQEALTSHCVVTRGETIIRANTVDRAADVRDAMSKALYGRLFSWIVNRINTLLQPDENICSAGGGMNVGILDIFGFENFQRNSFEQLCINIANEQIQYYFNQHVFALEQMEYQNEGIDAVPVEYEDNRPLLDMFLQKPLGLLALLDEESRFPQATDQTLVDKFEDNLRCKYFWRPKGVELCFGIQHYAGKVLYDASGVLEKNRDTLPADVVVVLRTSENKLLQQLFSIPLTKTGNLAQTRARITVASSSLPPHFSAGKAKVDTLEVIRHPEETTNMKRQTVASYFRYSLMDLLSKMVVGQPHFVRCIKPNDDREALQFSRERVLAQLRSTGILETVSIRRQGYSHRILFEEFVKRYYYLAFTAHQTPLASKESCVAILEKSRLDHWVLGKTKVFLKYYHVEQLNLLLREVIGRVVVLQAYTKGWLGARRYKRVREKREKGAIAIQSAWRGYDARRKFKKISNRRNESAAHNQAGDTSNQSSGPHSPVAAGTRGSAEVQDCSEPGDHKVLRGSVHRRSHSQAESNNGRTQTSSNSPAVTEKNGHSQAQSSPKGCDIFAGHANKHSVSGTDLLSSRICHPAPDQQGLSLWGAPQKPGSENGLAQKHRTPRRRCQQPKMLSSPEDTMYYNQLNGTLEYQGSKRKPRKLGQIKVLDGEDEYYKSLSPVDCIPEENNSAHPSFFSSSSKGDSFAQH
Kind of experiment: Inhibition of MYO3B (unknown origin) assessed as residual activity at 100 nM by KINOMEscan analysis relative to control.

Cyclin-dependent kinase 18 (Homo sapiens), sequence (Q07002 whole entry): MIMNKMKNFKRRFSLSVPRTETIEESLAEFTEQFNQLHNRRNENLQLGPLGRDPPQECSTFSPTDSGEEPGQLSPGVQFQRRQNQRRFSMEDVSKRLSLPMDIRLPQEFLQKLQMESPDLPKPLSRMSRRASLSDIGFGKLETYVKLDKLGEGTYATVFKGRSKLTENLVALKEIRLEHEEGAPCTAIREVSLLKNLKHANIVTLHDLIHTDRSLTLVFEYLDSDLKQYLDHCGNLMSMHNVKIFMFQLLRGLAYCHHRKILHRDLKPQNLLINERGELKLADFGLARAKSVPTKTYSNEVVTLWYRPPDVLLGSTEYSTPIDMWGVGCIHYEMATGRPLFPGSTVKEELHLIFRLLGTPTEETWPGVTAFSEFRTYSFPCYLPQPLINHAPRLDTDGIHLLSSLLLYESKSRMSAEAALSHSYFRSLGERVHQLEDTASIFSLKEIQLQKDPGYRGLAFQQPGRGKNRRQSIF

Consider `COc1cc2ncnc(N[C@H](C)c3cccc4ccccc34)c2cc1OC`, for which the Activity was found to be 76% in experiment [1], 76% in experiment [2], 92% in experiment [3] and 98% in experiment [4].
